Like-named read-outs stand apart in the source and are kept apart here.
Legend:
Assay type in all cases: cell-based, Staphylococcus aureus
[1] = test system: S. aureus JE2 transposon mutant SAUSA300_0647 (vraF); experiment: MIC ratio WT/mutant
[2] = test system: S. aureus JE2 transposon mutant SAUSA300_1037 (pheS); experiment: MIC ratio WT/mutant
[3] = test system: S. aureus JE2 transposon mutant SAUSA300_1962; experiment: MIC ratio WT/mutant
[4] = test system: S. aureus JE2 transposon mutant SAUSA300_1465; experiment: MIC ratio WT/mutant
[5] = test system: S. aureus JE2 transposon mutant SAUSA300_1255 (mprF); experiment: MIC ratio WT/mutant
[6] = test system: S. aureus JE2 transposon mutant SAUSA300_1503
[7] = test system: S. aureus JE2 transposon mutant SAUSA300_1898
[8] = test system: S. aureus JE2 transposon mutant SAUSA300_1036
[9] = test system: S. aureus JE2 transposon mutant SAUSA300_0829 (lipA); experiment: MIC ratio WT/mutant
[10] = test system: S. aureus JE2 transposon mutant SAUSA300_1336
[11] = test system: S. aureus JE2 transposon mutant SAUSA300_0988 (trkA); experiment: MIC ratio WT/mutant
[12] = test system: S. aureus JE2 transposon mutant SAUSA300_1867; experiment: MIC ratio WT/mutant
[13] = test system: S. aureus JE2 transposon mutant SAUSA300_1967
[14] = test system: S. aureus JE2 transposon mutant SAUSA300_0646 (graS); experiment: MIC ratio WT/mutant
[15] = test system: S. aureus JE2 transposon mutant SAUSA300_0186 (argC)
[16] = test system: S. aureus JE2 transposon mutants; details: peptide at 1.56 μM, propidium iodide
S. aureus = experiment: Growth inhibition in 100% TSB

Compound | Fold decrease of MIC (MIC ratio WT / mutant) [1] | Fold decrease of MIC (MIC ratio WT / mutant) [2] | Fold decrease of MIC (MIC ratio WT / mutant) [3] | Fold decrease of MIC (MIC ratio WT / mutant) [4] | Fold decrease of MIC (MIC ratio WT / mutant) [5] | Fold decrease of MIC (MIC ratio WT / mutant) [6] | Fold decrease of MIC (MIC ratio WT / mutant) [7] | Fold decrease of MIC (MIC ratio WT / mutant) [8] | Fold decrease of MIC (MIC ratio WT / mutant) [9] | Fold decrease of MIC (MIC ratio WT / mutant) [10] | Fold decrease of MIC (MIC ratio WT / mutant) [11] | Fold decrease of MIC (MIC ratio WT / mutant) [12] | Fold decrease of MIC (MIC ratio WT / mutant) [13] | Fold decrease of MIC (MIC ratio WT / mutant) [14] | Fold decrease of MIC (MIC ratio WT / mutant) [15] | Membrane permeability of mutant relative to JE2 ([16]; mutant SAUSA300_0646) | Membrane permeability of mutant relative to JE2 ([16]; mutants SAUSA300_0186, 0829, 1089, 1097, 1220, 1228, 1515, 1865, 1867, 1962 and 1967) | Membrane permeability of mutant relative to JE2 ([16]; mutants SAUSA300_0645, 0647 and 1503) | Membrane permeability of mutant relative to JE2 ([16]; mutants SAUSA300_1036, 1037 and 1255) | Inhibition of S. aureus growth (S. aureus)
NC[C@H]1O[C@H](O[C@H]2[C@H](O)[C@@H](O[C@H]3O[C@H](CO)[C@@H](O)[C@H](N)[C@H]3O)[C@H](N)C[C@@H]2N)[C@H](N)C[C@@H]1O [Tobra, tobramycin] | 2 fold | 4 fold | 2 fold | 4 fold | 4 fold |  |  |  |  |  |  |  |  |  |  |  |  |  |  | 
CN(C)c1cc(NC(=O)CNC(C)(C)C)c(O)c2c1C[C@H]1C[C@H]3[C@H](N(C)C)C(O)=C(C(N)=O)C(=O)[C@@]3(O)C(O)=C1C2=O [Tige, tigecycline] | 2 fold | 2–4 fold | 4 fold | 6 fold | 2 fold | 2 fold | 2 fold | 2 fold | 2 fold | 2 fold | 2 fold | 2 fold | 2 fold | 2 fold | 2 fold |  |  |  |  | 
CC(=O)NC[C@H]1CN(c2ccc(N3CCOCC3)c(F)c2)C(=O)O1 [Linez, linezolid] | 6 fold | 2 fold | 2–4 fold | 6 fold |  | 2 fold |  |  |  |  |  |  |  |  |  |  |  |  |  | 
CC[C@H](C)[C@H](NC(=O)[C@H](CCCCN)NC(=O)[C@H](CCC(=O)O)NC(=O)[C@H](CCCCN)NC(=O)[C@H](CO)NC(=O)[C@H](CCCCN)NC(=O)[C@H](CCCNC(=N)N)NC(=O)[C@H](Cc1ccccc1)NC(=O)[C@H](Cc1ccccc1)NC(=O)[C@H](CC(=O)O)NC(=O)CNC(=O)[C@H](CC(C)C)NC(=O)[C@@H](N)CC(C)C)C(=O)NCC(=O)N[C@@H](CCCCN)C(=O)N[C@@H](CCC(=O)O)C(=O)N[C@@H](Cc1ccccc1)C(=O)N[C@@H](CCCCN)C(=O)N[C@@H](CCCNC(=N)N)C(=O)N[C@H](C(=O)N[C@H](C(=O)N[C@@H](CCC(N)=O)C(=O)N[C@@H](CCCNC(=N)N)C(=O)N[C@H](C(=O)N[C@@H](CCCCN)C(=O)N[C@@H](CC(=O)O)C(=O)N[C@@H](Cc1ccccc1)C(=O)N[C@@H](CC(C)C)C(=O)N[C@@H](CCCNC(=N)N)C(=O)N[C@@H](CC(N)=O)C(=O)N[C@@H](CC(C)C)C(=O)N[C@H](C(=O)N1CCC[C@H]1C(=O)N[C@@H](CCCNC(=N)N)C(=O)N[C@H](C(=O)N[C@@H](CCC(=O)O)C(=O)N[C@@H](CO)C(=O)O)[C@@H](C)O)C(C)C)[C@@H](C)CC)C(C)C)[C@@H](C)CC [LL-37] |  |  |  |  |  |  |  |  |  |  |  |  |  |  |  | less permeable | essentially no differences | slightly more permeable | clearly more permeable than JE2 | did not inhibit
CN[C@H](CC(C)C)C(=O)N[C@H]1C(=O)N[C@@H](CC(N)=O)C(=O)N[C@H]2C(=O)N[C@H]3C(=O)N[C@H](C(=O)N[C@H](C(=O)O)c4cc(O)cc(O)c4-c4cc3ccc4O)[C@H](O)c3ccc(c(Cl)c3)Oc3cc2cc(c3O[C@@H]2O[C@H](CO)[C@@H](O)[C@H](O)[C@H]2O[C@H]2C[C@](C)(N)[C@H](O)[C@H](C)O2)Oc2ccc(cc2Cl)[C@H]1O [Van, vancomycin] | 2–4 fold | 4 fold | 2 fold | 4 fold | 2 fold |  |  |  |  |  |  | 2 fold |  | 2–4 fold |  |  |  |  |  | 

From paper PMC7354229 (ACS infectious diseases, 2020)
